Measurements taken from the NIST ThermoML archive (doi:10.1007/s10765-010-0766-0).
Numbers after ± are expanded uncertainties.

Conditions: Liquid, Pycnometric method

FC(F)C(F)(F)OCC(F)(F)F [2,2,2-trifluoroethyl 1,1,2,2-tetrafluoroethyl ether]
Conditions | mass density [kg/m3]
279.15 K, 5663 kPa | 1535.2 ± 2.5
280.15 K, 6663 kPa | 1534.9 ± 2.5
280.15 K, 6673 kPa | 1534.9 ± 2.5
281.15 K, 7673 kPa | 1534.6 ± 2.5
281.15 K, 7685 kPa | 1534.7 ± 2.5
282.15 K, 8685 kPa | 1534.4 ± 2.5
282.15 K, 8696 kPa | 1534.5 ± 2.5
283.15 K, 9695 kPa | 1534.2 ± 2.5
283.15 K, 9705 kPa | 1534.3 ± 2.5
284.15 K, 10704 kPa | 1534 ± 2.5
284.15 K, 10712 kPa | 1534 ± 2.5
285.15 K, 11710 kPa | 1533.8 ± 2.5
285.15 K, 11717 kPa | 1533.8 ± 2.5
286.15 K, 12714 kPa | 1533.6 ± 2.5
286.15 K, 12720 kPa | 1533.6 ± 2.5
287.15 K, 13718 kPa | 1533.4 ± 2.5
287.15 K, 13722 kPa | 1533.4 ± 2.5
288.15 K, 14719 kPa | 1533.2 ± 2.5
288.15 K, 14722 kPa | 1533.2 ± 2.5
289.15 K, 15719 kPa | 1533 ± 2.5
289.15 K, 15720 kPa | 1533 ± 2.5
290.15 K, 16716 kPa | 1532.8 ± 2.5
290.15 K, 16717 kPa | 1532.8 ± 2.5
291.15 K, 17711 kPa | 1532.6 ± 2.5
291.15 K, 17712 kPa | 1532.6 ± 2.5
292.15 K, 18703 kPa | 1532.5 ± 2.5
292.15 K, 18704 kPa | 1532.4 ± 2.5
293.15 K, 19694 kPa | 1532.3 ± 2.5
294.15 K, 20683 kPa | 1532.1 ± 2.5
295.15 K, 21669 kPa | 1531.9 ± 2.5
296.15 K, 22653 kPa | 1531.8 ± 2.5
296.15 K, 22654 kPa | 1531.8 ± 2.5
297.15 K, 23636 kPa | 1531.6 ± 2.5
298.15 K, 24616 kPa | 1531.4 ± 2.5
298.15 K, 24617 kPa | 1531.4 ± 2.5
299.15 K, 25595 kPa | 1531.3 ± 2.5
299.15 K, 25596 kPa | 1531.3 ± 2.5
300.15 K, 26572 kPa | 1531.1 ± 2.5
300.15 K, 26573 kPa | 1531.1 ± 2.5
301.15 K, 6294 kPa | 1484.4 ± 2.4
301.15 K, 27548 kPa | 1531 ± 2.5
302.15 K, 7147 kPa | 1484.2 ± 2.4
302.15 K, 28521 kPa | 1530.9 ± 2.5
302.15 K, 28522 kPa | 1530.9 ± 2.5
303.15 K, 8010 kPa | 1484 ± 2.4
303.15 K, 8015 kPa | 1484 ± 2.4
303.15 K, 29493 kPa | 1530.7 ± 2.5
304.15 K, 8873 kPa | 1483.8 ± 2.4
304.15 K, 8874 kPa | 1483.8 ± 2.4
305.15 K, 9734 kPa | 1483.6 ± 2.4
306.15 K, 10592 kPa | 1483.4 ± 2.4
306.15 K, 10594 kPa | 1483.4 ± 2.4
307.15 K, 11449 kPa | 1483.2 ± 2.4
307.15 K, 11452 kPa | 1483.2 ± 2.4
308.15 K, 12303 kPa | 1483 ± 2.4
308.15 K, 12308 kPa | 1483.1 ± 2.4
309.15 K, 13157 kPa | 1482.8 ± 2.4
309.15 K, 13163 kPa | 1482.9 ± 2.4
310.15 K, 14009 kPa | 1482.7 ± 2.4
310.15 K, 14016 kPa | 1482.7 ± 2.4
311.15 K, 14859 kPa | 1482.5 ± 2.4
311.15 K, 14867 kPa | 1482.5 ± 2.4
312.15 K, 15708 kPa | 1482.3 ± 2.4
312.15 K, 15718 kPa | 1482.4 ± 2.4
313.15 K, 16557 kPa | 1482.1 ± 2.4
313.15 K, 16566 kPa | 1482.2 ± 2.4
314.15 K, 17405 kPa | 1482 ± 2.4
314.15 K, 17414 kPa | 1482 ± 2.4
315.15 K, 18252 kPa | 1481.8 ± 2.4
315.15 K, 18260 kPa | 1481.8 ± 2.4
316.15 K, 19097 kPa | 1481.7 ± 2.4
316.15 K, 19105 kPa | 1481.7 ± 2.4
317.15 K, 19942 kPa | 1481.5 ± 2.4
317.15 K, 19949 kPa | 1481.5 ± 2.4
318.15 K, 20785 kPa | 1481.4 ± 2.4
318.15 K, 20791 kPa | 1481.4 ± 2.4
319.15 K, 21626 kPa | 1481.2 ± 2.4
319.15 K, 21632 kPa | 1481.2 ± 2.4
320.15 K, 22467 kPa | 1481.1 ± 2.4
320.15 K, 22471 kPa | 1481.1 ± 2.4
321.15 K, 23306 kPa | 1480.9 ± 2.4
321.15 K, 23311 kPa | 1480.9 ± 2.4
322.15 K, 24144 kPa | 1480.8 ± 2.4
322.15 K, 24148 kPa | 1480.8 ± 2.4
323.15 K, 24980 kPa | 1480.6 ± 2.4
323.15 K, 24983 kPa | 1480.6 ± 2.4
324.15 K, 25816 kPa | 1480.5 ± 2.4
324.15 K, 25819 kPa | 1480.5 ± 2.4
325.15 K, 26650 kPa | 1480.4 ± 2.4
325.15 K, 26653 kPa | 1480.4 ± 2.4
326.15 K, 27482 kPa | 1480.2 ± 2.4
326.15 K, 27484 kPa | 1480.2 ± 2.4
327.15 K, 28313 kPa | 1480.1 ± 2.4
327.15 K, 28315 kPa | 1480.1 ± 2.4
328.15 K, 29144 kPa | 1480 ± 2.4
328.15 K, 29145 kPa | 1480 ± 2.4
329.15 K, 7678 kPa | 1420.3 ± 2.3
329.15 K, 7689 kPa | 1420.3 ± 2.3
329.15 K, 29973 kPa | 1479.9 ± 2.4
329.15 K, 29975 kPa | 1479.9 ± 2.4
330.15 K, 8385 kPa | 1420.1 ± 2.3
330.15 K, 8394 kPa | 1420.1 ± 2.3
331.15 K, 9091 kPa | 1420 ± 2.3
331.15 K, 9099 kPa | 1419.9 ± 2.3
332.15 K, 9796 kPa | 1419.8 ± 2.3
332.15 K, 9803 kPa | 1419.8 ± 2.3
333.15 K, 10500 kPa | 1419.6 ± 2.3
333.15 K, 10506 kPa | 1419.6 ± 2.3
334.15 K, 11204 kPa | 1419.5 ± 2.3
334.15 K, 11209 kPa | 1419.5 ± 2.3
335.15 K, 11908 kPa | 1419.3 ± 2.3
335.15 K, 11912 kPa | 1419.3 ± 2.3
336.15 K, 12610 kPa | 1419.2 ± 2.3
336.15 K, 12614 kPa | 1419.1 ± 2.3
337.15 K, 13313 kPa | 1419 ± 2.3
337.15 K, 13315 kPa | 1419 ± 2.3
338.15 K, 14014 kPa | 1418.8 ± 2.3
338.15 K, 14016 kPa | 1418.8 ± 2.3
339.15 K, 14714 kPa | 1418.7 ± 2.3
339.15 K, 14716 kPa | 1418.7 ± 2.3
340.15 K, 15413 kPa | 1418.5 ± 2.3
340.15 K, 15416 kPa | 1418.5 ± 2.3
341.15 K, 16111 kPa | 1418.4 ± 2.3
341.15 K, 16114 kPa | 1418.4 ± 2.3
